Reference: publication PMC3577944 (Nature chemical biology, 2013)
Substitutions are numbered along the chain they refer to. Entries after “also recorded” stand apart in the source; their conditions may differ. No end group written: not given here.

Experiments:
[1] = target: T1, flag-3MBT / BCLAF1 interaction (Homo sapiens, UniProt Q96JM7); test: Co-immunoprecipitation of BCLAF1 with flag-3MBT; assay type: cell-based; settings: 1 μM, 18 hours, HEK293 cells
T1 sequence (Q96JM7 225-555 limits assumed): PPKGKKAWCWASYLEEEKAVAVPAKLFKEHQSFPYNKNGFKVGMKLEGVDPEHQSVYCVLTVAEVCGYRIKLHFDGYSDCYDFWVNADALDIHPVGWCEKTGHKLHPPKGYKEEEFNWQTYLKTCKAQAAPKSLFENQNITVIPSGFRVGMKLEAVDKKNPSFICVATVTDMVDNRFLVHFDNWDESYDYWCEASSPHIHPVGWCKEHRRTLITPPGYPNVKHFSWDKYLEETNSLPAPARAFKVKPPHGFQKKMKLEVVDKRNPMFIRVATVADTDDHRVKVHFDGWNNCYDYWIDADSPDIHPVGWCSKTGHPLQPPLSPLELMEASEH

53BP1 = 53BP1 (Homo sapiens, UniProt Q12888); test: H4K20me2 peptide pull-down competition; settings: increasing concentrations
Chain of 53BP1 (Q12888 1459-1634): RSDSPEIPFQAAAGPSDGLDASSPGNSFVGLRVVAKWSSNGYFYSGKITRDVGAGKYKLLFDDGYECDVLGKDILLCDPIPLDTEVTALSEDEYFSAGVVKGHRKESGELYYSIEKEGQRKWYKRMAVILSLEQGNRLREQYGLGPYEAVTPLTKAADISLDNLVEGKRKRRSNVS

[2] = target: T2, GFP-FLMBT (full length L3MBTL3) (Homo sapiens, UniProt Q96JM7); test: FRAP of GFP-FLMBT; assay type: cell-based; settings: lesser extent than GFP-3MBT
T2 sequence (Q96JM7 1-755 isoform Q96JM7-2): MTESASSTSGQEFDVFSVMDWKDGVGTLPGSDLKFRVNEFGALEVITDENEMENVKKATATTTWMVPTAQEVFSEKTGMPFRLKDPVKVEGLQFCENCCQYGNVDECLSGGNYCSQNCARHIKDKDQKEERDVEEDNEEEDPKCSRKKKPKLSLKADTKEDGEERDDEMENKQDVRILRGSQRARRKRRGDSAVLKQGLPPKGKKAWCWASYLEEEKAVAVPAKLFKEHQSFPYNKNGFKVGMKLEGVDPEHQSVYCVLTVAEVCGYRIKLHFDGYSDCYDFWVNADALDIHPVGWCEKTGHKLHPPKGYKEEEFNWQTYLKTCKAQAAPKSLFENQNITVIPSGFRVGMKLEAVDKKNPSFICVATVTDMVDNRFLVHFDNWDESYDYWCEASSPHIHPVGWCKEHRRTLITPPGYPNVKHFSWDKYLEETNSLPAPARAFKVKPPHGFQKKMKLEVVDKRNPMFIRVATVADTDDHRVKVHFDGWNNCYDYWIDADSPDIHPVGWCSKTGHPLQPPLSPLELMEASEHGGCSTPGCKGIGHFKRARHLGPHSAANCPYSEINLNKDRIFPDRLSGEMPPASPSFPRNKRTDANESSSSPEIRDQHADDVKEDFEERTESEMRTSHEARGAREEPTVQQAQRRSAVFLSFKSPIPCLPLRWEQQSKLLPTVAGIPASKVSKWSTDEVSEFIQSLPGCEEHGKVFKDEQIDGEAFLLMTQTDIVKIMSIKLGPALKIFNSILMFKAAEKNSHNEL

D274A 3MBT = target: T3, D274A 3MBT (Homo sapiens, UniProt Q96JM7, D274A); test: ITC, domain 1 mutant; assay type: binding
T3 sequence (Q96JM7 225-555 D274A): T1 sequence (Q96JM7 225-555 limits assumed) with D50A

D381A 3MBT = target: T4, D381A 3MBT (Homo sapiens, UniProt Q96JM7, D381A); test: ITC, domain 2 mutant; settings: domain 2 binding pocket mutant
T4 sequence (Q96JM7 225-555 D381A): T1 sequence (Q96JM7 225-555 limits assumed) with D157A

hM2 = target: T5, hM2 (Homo sapiens, UniProt P08172); test: M2 cAMP biosensor functional assay; assay type: cell-based
T5 sequence (P08172 1-466): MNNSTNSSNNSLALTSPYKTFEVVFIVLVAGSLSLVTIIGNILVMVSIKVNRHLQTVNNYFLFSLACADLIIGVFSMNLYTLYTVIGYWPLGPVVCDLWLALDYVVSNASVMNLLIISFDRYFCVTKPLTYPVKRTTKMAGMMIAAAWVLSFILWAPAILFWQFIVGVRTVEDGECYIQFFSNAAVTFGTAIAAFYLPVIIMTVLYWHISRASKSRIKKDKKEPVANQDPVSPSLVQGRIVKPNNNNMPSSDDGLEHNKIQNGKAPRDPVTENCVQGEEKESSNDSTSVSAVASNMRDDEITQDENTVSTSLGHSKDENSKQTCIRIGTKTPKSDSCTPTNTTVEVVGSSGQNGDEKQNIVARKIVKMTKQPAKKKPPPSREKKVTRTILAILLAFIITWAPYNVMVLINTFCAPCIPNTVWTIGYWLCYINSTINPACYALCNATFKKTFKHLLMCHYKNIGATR

[3] = target: T6, GFP-3MBT (L3MBTL3 MBT domains) in HEK293 cells (Homo sapiens, UniProt Q96JM7); test: FRAP of GFP-3MBT; assay type: cell-based
T6 sequence (Q96JM7 200-530 isoform Q96JM7-2 limits assumed): T1 sequence (Q96JM7 225-555 limits assumed)

HEK293T/17 cells = test: CellTiter-Glo luminescent cell viability assay; assay type: cell-based, human; settings: up to 100 µM, 24 hours
[4] = target: T7, flag-FLMBT / BCLAF1 interaction (Homo sapiens, UniProt Q96JM7); test: Co-immunoprecipitation of BCLAF1 with flag-FLMBT; assay type: cell-based; settings: 1 μM, 18 hours, HEK293 cells
T7 sequence (Q96JM7 1-755 isoform Q96JM7-2): T2 sequence (Q96JM7 1-755 isoform Q96JM7-2)

[5] = test system: Histone demethylases (15 targets); test: Lysine demethylase selectivity, differential scanning fluorimetry; assay type: binding
H277A 3MBT = target: T8, H277A 3MBT (Homo sapiens, UniProt Q96JM7, H277A); test: ITC, H277A mutant; assay type: binding; settings: relative to wild-type
T8 sequence (Q96JM7 225-555 H277A): T1 sequence (Q96JM7 225-555 limits assumed) with H53A

[6] = target: T9, GFP-FLMBT foci in 293 or U2OS cells (Homo sapiens, UniProt Q96JM7); test: GFP-FLMBT nuclear foci formation; assay type: cell-based; settings: N-terminally tagged full length L3MBTL3
T9 sequence (Q96JM7 1-755 isoform Q96JM7-2): T2 sequence (Q96JM7 1-755 isoform Q96JM7-2)

hM1 = target: T10, hM1 (Homo sapiens, UniProt P11229); test: M1 Ca2+ mobilization functional assay; assay type: cell-based
T10 sequence (P11229 1-460): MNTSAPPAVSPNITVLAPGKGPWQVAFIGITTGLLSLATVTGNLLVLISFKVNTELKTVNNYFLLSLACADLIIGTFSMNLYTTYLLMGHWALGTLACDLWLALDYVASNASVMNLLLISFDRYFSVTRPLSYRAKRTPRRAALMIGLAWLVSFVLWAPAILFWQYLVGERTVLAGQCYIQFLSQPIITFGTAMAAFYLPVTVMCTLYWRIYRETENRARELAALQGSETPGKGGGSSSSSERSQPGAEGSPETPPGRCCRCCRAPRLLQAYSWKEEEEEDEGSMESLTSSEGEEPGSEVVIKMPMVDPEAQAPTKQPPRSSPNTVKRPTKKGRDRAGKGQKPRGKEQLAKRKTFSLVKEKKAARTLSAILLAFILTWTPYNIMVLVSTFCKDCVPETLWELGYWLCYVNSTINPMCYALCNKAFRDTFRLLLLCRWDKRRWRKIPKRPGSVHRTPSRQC

[7] = test system: Bromodomains (12 targets); test: Bromodomain selectivity, differential scanning fluorimetry; assay type: binding; settings: at 10 µM versus 12 targets
L3MBTL3 (3MBT) [8] = target: T11, L3MBTL3 (3MBT) (Homo sapiens, UniProt Q96JM7); test: H4K20me2 peptide pull-down competition; settings: increasing concentrations
T11 sequence (Q96JM7 168-555 limits assumed): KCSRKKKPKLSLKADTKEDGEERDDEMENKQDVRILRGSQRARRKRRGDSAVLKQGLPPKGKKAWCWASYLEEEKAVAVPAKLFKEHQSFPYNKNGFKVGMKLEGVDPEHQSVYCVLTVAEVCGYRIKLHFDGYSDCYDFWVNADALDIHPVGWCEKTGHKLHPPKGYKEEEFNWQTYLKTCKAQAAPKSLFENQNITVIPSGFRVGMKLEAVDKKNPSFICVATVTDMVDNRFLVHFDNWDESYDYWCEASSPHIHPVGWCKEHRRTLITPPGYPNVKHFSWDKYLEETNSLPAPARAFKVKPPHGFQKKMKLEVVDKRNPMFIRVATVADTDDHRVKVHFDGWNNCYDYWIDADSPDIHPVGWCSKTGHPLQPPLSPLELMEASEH

[9] = test system: G9a, EHMT1, SUV39H2, PRMT3, SETD7, SETD8, DNMT1, MLL, PRC2, PRMT5; test: Histone methyltransferase selectivity, radioactive SAM methyl transfer; assay type: biochemical
L3MBTL3 (3MBT) [10] = target: T12, L3MBTL3 (3MBT) (Homo sapiens, UniProt Q96JM7); assay type: binding; settings: similar affinity to H4K20me histone peptides
T12 sequence (Q96JM7 225-555): T1 sequence (Q96JM7 225-555 limits assumed)

Molecule	interaction between flag-3MBT and BCLAF1, in words [1]	antagonism of 53BP1 H4K20me2 pull-down, in words (53BP1)	mobility of GFP-FLMBT by FRAP, in words [2]	binding diminished relative to wildtype, D274A 3MBT (D274A 3MBT)	binding to D381A 3MBT by ITC, in words (D381A 3MBT)	agonist activity, M2 (hM2)	EC50 [3] [nM]	cytotoxicity (CellTiter-Glo cell viability) (HEK293T/17 cells)	interaction between flag-FLMBT and BCLAF1, in words [4]	Tm shift, lysine demethylases [5] [°C]	binding to H277A 3MBT by ITC, in words (H277A 3MBT)	effect on GFP-FLMBT foci formation, in words [6]	agonist activity, M1 (hM1)	Tm shift, bromodomains [7] [°C]	antagonism of L3MBTL3 (3MBT) H4K20me2 pull-down, in words (L3MBTL3 (3MBT) [8])	activity against panel of histone methyltransferases, in words [9]	displacement of H4K20me2 from L3MBTL3 by AlphaScreen, in words (L3MBTL3 (3MBT) [10])
O=C(c1ccc(C(=O)N2CCC(N3CCCC3)CC2)c(Nc2ccccc2)c1)N1CCC(N2CCCC2)CC1 [UNC1215]	substantially reduced; also recorded: disrupts the interaction	much weaker affinity; also recorded: micromolar antagonism	found to increase	about 30 fold	completely abolished; also recorded: completely abrogates binding	no agonist activity	50 to 100	no observable level of cytotoxicity	reduced to a lesser extent; also recorded: reduces the interaction	< 0.5	marked loss of affinity	relatively ineffective at inhibiting foci formation; also recorded: could no longer be disrupted	no agonist activity	< 0.5	nanomolar potency	inactive	
BCLAF1 Kme peptide: K445me containing BCLAF1 peptide (residues 438-452) (YKSKVSLK(Me)GNRESDG)																	effectively displaces H4K20me2
